Experimental data published in publication PMC2114737 (The Journal of Cell Biology, 1987).

What was measured:
[1] = molecular target: T1, N-formyl peptide receptor (Homo sapiens, UniProt P21462); test: Effect of guanine nucleotides on receptor affinity states of fast membranes; assay type: binding
T1 sequence (P21462 1-350): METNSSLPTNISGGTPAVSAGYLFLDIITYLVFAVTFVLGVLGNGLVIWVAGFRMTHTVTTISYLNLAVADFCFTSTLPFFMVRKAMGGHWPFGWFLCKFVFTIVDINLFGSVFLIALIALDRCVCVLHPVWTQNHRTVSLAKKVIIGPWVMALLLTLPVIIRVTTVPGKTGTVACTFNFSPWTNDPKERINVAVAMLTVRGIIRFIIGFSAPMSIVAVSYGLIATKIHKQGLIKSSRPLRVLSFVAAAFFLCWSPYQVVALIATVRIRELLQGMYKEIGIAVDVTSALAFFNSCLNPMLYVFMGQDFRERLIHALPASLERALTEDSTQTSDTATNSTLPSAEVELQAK

[2] = molecular target: T1, N-formyl peptide receptor; assay type: binding; details: Table II; fast microsomes, unstimulated; mean, SD, n = 5

Nc1nc2c(ncn2[C@@H]2O[C@H](COP(=O)(O)OP(=O)(O)OP(O)(O)=S)[C@@H](O)[C@H]2O)c(=O)[nH]1 [GTP-y-S]
Effect on state C receptor ([1]; fast membranes from Fl-peptide-stimulated cells, GTP-γ-S, listed as GTP-gamma-S): insensitive

Nc1nc2c(ncn2[C@@H]2O[C@H](COP(=O)(O)OP(=O)(O)OP(=O)(O)O)[C@@H](O)[C@H]2O)c(=O)[nH]1 [GTP]
Effect on state B dissociation rate / conversion to state A ([1]; membranes from unstimulated cells, nucleotide 10 μM where stated): converted to the fastest ligand-dissociation state (state A)

N-formyl-Nle-Leu-Phe-Nle-Tyr- Lys-fluorescein [Fl-peptide]
Percentage of receptor associated with State B [2]: 47%
